Measured values taken from patent US20240208994A1, “PLASMA KALLIKREIN INHIBITORS” (Merck Sharp & Dohme LLC, priority 2021, published 2024).

Tests used:
Human plasma kallikrein = biological target: T1, Human plasma kallikrein (Homo sapiens, UniProt P03952); assay: Plasma Kallikrein Assay; assay type: biochemical; details: purified Human plasma kallikrein 0.5 nM, substrate Acetyl-K-P-R-AFC, HEPES pH 7.4, fluorescence 405 Ex/510 Em; read-out: PKal IC50
T1 construct: yields a heavy chain (371 amino acids) and a light chain (248 amino acids); purchased Enzyme Research Laboratories
T1 sequence (P03952 391-638 limits assumed): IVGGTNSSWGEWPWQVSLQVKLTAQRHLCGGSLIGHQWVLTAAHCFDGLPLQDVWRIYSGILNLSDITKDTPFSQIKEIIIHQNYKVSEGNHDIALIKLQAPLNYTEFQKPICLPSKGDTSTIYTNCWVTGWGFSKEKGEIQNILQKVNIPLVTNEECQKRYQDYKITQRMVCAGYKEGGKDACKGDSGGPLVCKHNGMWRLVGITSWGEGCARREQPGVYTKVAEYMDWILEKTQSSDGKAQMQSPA
T1 sequence (P03952 20-390 partner limits assumed): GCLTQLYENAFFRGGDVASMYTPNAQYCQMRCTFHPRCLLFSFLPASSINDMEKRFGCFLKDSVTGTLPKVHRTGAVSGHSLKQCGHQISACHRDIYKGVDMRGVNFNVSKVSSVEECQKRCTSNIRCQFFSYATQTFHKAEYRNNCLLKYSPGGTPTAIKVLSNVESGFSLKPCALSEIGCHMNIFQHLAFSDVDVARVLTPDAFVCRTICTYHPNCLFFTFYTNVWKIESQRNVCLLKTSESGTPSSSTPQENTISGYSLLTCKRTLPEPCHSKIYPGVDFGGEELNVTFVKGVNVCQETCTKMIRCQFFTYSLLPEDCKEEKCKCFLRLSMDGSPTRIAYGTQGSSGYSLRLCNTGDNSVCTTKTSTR
Protocol: (§1) The effectiveness of a compound of the present invention as an inhibitor of plasma kallikrein can be determined using a relevant purified serine protease, and an appropriate synthetic substrate. The rate of hydrolysis of the chromogenic or fluorogenic substrate by the relevant serine protease was measured both in the absence and presence of compounds of the present invention. Assays were conducted at rt or at 37° C. […] A decrease in the rate of fluorescence change in the presence of inhibitor is indicative of enzyme inhibition. Such methods are known to one skilled in the art. The results of this assay are expressed as the half-maximal inhibitory concentrations (IC50), or the inhibitory constant, Ki.
Plasma kallikrein determinations were made in 50 mM HEPES buffer at pH 7.4 containing 150 mM NaCl, 5 mM CaCl2), and 0.1% PEG 8000 (polyethylene glycol: Fisher Scientific). Determinations were made using purified Human plasma kallikrein at a final concentration of 0.5 nM (Enzyme Research Laboratories) and the synthetic substrate, Acetyl-K-P-R-AFC (Sigma #C6608) at a concentration of […].
Activity assays were performed by diluting a stock solution of substrate at least tenfold to a final concentration ≤0.2 Km into a solution containing enzyme or enzyme equilibrated with inhibitor. Times required to achieve equilibration between enzyme and inhibitor were determined in control experiments. The reactions were performed under linear progress curve conditions and fluorescence increase measured at 405 Ex/510 Em nm. Values were converted to percent inhibition of the control reaction (after subtracting 100% Inhibition value). IC50 was determined by inflection point from a four parameter logistic curve fit. Ki was calculated using the Cheng Prusoff equation, Ki=IC50/(1+([S]/Km)).

human factor XIa = human factor XIa (Homo sapiens, UniProt P03951); assay: Factor XIa Assay; assay type: biochemical; details: human factor XIa 0.04 nM, 30 min pre-incubation at 25° C., substrate GPR-AFC, pH 7.4, 60 min incubation; read-out: FXIa IC50
Sequence of human factor XIa (P03951 388-625 limits assumed): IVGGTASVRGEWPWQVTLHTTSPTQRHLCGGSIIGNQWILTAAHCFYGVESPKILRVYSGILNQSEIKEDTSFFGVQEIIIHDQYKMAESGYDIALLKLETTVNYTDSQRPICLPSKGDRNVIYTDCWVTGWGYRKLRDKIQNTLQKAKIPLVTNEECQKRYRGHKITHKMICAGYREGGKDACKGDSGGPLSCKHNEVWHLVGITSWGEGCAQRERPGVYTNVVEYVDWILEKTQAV
Sequence of human factor XIa (P03951 19-387 partner limits assumed): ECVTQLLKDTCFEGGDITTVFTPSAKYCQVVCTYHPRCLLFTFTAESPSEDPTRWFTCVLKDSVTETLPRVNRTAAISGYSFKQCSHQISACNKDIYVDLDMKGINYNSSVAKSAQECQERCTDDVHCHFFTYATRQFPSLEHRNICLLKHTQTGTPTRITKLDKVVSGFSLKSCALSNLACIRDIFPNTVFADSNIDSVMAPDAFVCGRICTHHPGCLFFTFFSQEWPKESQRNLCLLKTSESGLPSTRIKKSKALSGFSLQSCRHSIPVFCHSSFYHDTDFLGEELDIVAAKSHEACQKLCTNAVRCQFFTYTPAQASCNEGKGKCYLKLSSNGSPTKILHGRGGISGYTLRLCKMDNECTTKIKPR
Protocol: as §1, with “Coagulation factor XIa” for “plasma kallikrein”
Compounds were pre-incubated for 30 min at 25° C. with human (0.04 nM) factor XIa in 50 mM HEPES buffer with 150 mM sodium chloride, 5 mM calcium chloride, 0.1% PEG 8000, pH 7.4. factor XIa enzymatic activity was determined by addition of the substrate glycine-proline-arginine-7-amido-4-trifluoromethylcoumarin (GPR-AFC) and measurement of the fluorescence at 400/505 nm after a 60 min incubation at 25° C. The % inhibition for each data point was calculated from the data and analyzed using the log (inhibitor) vs. response four parameters equation to determine the half-maximal inhibitory concentrations (IC50). The IC50 were converted to equilibrium inhibitory constants (Ki) using the Cheng-Prusoff equation.

| SMILES | IC50 (Human plasma kallikrein) [nM] | IC50 (human factor XIa) [nM] |
| --- | --- | --- |
| Nc1c(Cl)c(-c2ccccc2)nn1CC(=O)N1CCC[C@@]2(C1)OC(=O)Nc1ccc(Cl)c(F)c12 [Example 22, (R)-1′-(2-(5-Amino-4-chloro-3-phenyl-1H-pyrazol-1-yl)acetyl)-6-chloro-5-fluorospiro[benzo[d][1,3]oxazine-4,3′-piperidin]-2(1H)-one] | 26.3 | 516 |
| Nc1cc(-c2ccccc2)nn1CC(=O)N1CCC[C@@]2(C1)OC(=O)Nc1ccc(Cl)c(F)c12 [Example 23, (R)-1′-(2-(5-Amino-3-phenyl-1H-pyrazol-1-yl)acetyl)-6-chloro-5-fluorospiro[benzo[d][1,3]oxazine-4,3′-piperidin]-2(1H)-one] | 11.8 | 1790 |
| Nc1cc(-c2ccccc2)nn1CC(=O)N1CC[C@@]2(C1)OC(=O)Nc1ccc(Cl)c(F)c12 [Example 24, (R)-1′-(2-(5-Amino-3-phenyl-1H-pyrazol-1-yl)acetyl)-6-chloro-5-fluorospiro[benzo[d][1,3]oxazine-4,3'-pyrrolidin]-2(1H)-one] | 15.4 | 114 |
| Nc1cc(-c2cccnn2)nn1CC(=O)N1CC[C@@]2(C1)OC(=O)Nc1ccc(Cl)c(F)c12 [Example 25, (R)-1′-(2-(5-Amino-3-(pyridazin-3-yl)-1H-pyrazol-1-yl)acetyl)-6-chloro-5-fluorospiro[benzo[d][1,3]oxazine-4,3′-pyrrolidin]-2(1H)-one] | 12.7 | 367 |
| Nc1c2c(nn1CC(=O)N1CCC[C@@]3(C1)OC(=O)Nc1ccc(Cl)c(F)c13)CCCC2 [Example 26, (R)-1′-(2-(3-Amino-4,5,6,7-tetrahydro-2H-indazol-2-yl)acetyl)-6-chloro-5-fluorospiro[benzo[d][1,3]oxazine-4,3′-piperidin]-2(1H)-one] | 22.2 | 484 |
| Nc1cc(-c2ncc(F)cc2F)nn1CC(=O)N1CC[C@@]2(C1)OC(=O)Nc1ccc(Cl)c(F)c12 [Example 27, (R)-1′-(2-(5-Amino-3-(3,5-difluoropyridin-2-yl)-1H-pyrazol-1-yl)acetyl)-6-chloro-5-fluorospiro[benzo[d][1,3]oxazine-4,3′-pyrrolidin]-2(1H)-one] | 25.3 | 424 |
| Nc1cc(C2CC2)nn1CC(=O)N1CCC[C@@]2(C1)OC(=O)Nc1ccc(Cl)c(F)c12 [Example 28, (R)-1′-(2-(5-Amino-3-cyclopropyl-1H-pyrazol-1-yl)acetyl)-6-chloro-5-fluorospiro[benzo[d][1,3]oxazine-4,3′-piperidin]-2(1H)-one] | 16.7 | 55 |
| Nc1c(Cl)c(C2CC2)nn1CC(=O)N1CCC[C@@]2(C1)OC(=O)Nc1ccc(Cl)c(F)c12 [Example 29, (R)-1′-(2-(5-Amino-4-chloro-3-cyclopropyl-1H-pyrazol-1-yl)acetyl)-6-chloro-5-fluorospiro[benzo[d][1,3]oxazine-4,3'-piperidin]-2(1H)-one] | 32.3 | 1250 |
| Nc1c(F)c(-c2ccc(F)cc2F)nn1CC(=O)N1CCC[C@@]2(C1)OC(=O)Nc1ccc(Cl)c(F)c12 [Example 30, (R)-1′-(2-(5-Amino-3-(2,4-difluorophenyl)-4-fluoro-1H-pyrazol-1-yl)acetyl)-6-chloro-5-fluorospiro[benzo[d][1,3]oxazine-4,3'-piperidin]-2(1H)-one] | 37.4 | 164 |
| Nc1c(Cl)c(-c2ncc(F)cc2F)nn1CC(=O)N1CC[C@@]2(C1)OC(=O)Nc1ccc(Cl)c(F)c12 [Example 31, (R)-1′-(2-(5-Amino-4-chloro-3-(3,5-difluoropyridin-2-y1)-1H-pyrazol-1-yl)acetyl)-6-chloro-5-fluorospiro[benzo[d][1,3]oxazine-4,3′-pyrrolidin]-2(1H)-one] | 32.1 | 1830 |
| Nc1cc(-c2ncc(F)cc2F)nn1CC(=O)N1CCC[C@@]2(C1)OC(=O)Nc1ccc(Cl)c(F)c12 [Example 32, (R)-1′-(2-(5-Amino-3-(3,5-difluoropyridin-2-y1)-1H-pyrazol-1-yl)acetyl)-6-chloro-5-fluorospiro[benzo [d][1,3]oxazine-4,3′-piperidin]-2(1H)-one] | 5.7 | 648 |
| Nc1c(Cl)c(-c2ncc(F)cc2F)nn1CC(=O)N1CCC[C@@]2(C1)OC(=O)Nc1ccc(Cl)c(F)c12 [Example 33, (R)-1′-(2-(5-Amino-4-chloro-3-(3,5-difluoropyridin-2-y1)-1H-pyrazol-1-yl)acetyl)-6-chloro-5-fluorospiro[benzo[d][1,3]oxazine-4,3′-piperidin]-2(1H)-one] | 7.7 | 187 |
| Nc1c(Cl)c(-c2ncccc2F)nn1CC(=O)N1CCC[C@@]2(C1)OC(=O)Nc1ccc(Cl)c(F)c12 [Example 34, (R)-1′-(2-(5-Amino-4-chloro-3-(3-fluoropyridin-2-y1)-1H-pyrazol-1-yl)acetyl)-6-chloro-5-fluorospiro[benzo[d][1,3]oxazine-4,3′-piperidin]-2(1H)-one] | 8.9 | 177 |
| Nc1c(Cl)c(-c2ncccn2)nn1CC(=O)N1CCC[C@@]2(C1)OC(=O)Nc1ccc(Cl)c(F)c12 [Example 35, (R)-1′-(2-(5-Amino-4-chloro-3-(pyrimidin-2-y1)-1H-pyrazol-1-yl)acetyl)-6-chloro-5-fluorospiro[benzo[d][1,3]oxazine-4,3′-piperidin]-2(1H)-one] | 24.5 | 280 |
| Nc1cc(-c2ncccc2F)nn1CC(=O)N1CCC[C@@]2(C1)OC(=O)Nc1ccc(Cl)c(F)c12 [Example 36, (R)-1′-(2-(5-Amino-3-(3-fluoropyridin-2-y1)-1H-pyrazol-1-yl)acetyl)-6-chloro-5-fluorospiro [benzo[d][1,3]oxazine-4,3′-piperidin]-2(1H)-one] | 8.4 | 826 |
| Nc1cc(-c2c(F)cccc2F)nn1CC(=O)N1CC[C@@]2(C1)OC(=O)Nc1ccc(Cl)c(F)c12 [Example 37, (R)-1′-(2-(5-Amino-3-(2,6-difluorophenyl)-1H-pyrazol-1-yl)acetyl)-6-chloro-5-fluorospiro[benzo[d][1.3]oxazine-4,3′-pyrrolidin]-2(1H)-one] | 2.2 | 102 |
| Nc1cc(-c2ccccn2)nn1CC(=O)N1CC[C@@]2(C1)OC(=O)Nc1ccc(Cl)c(F)c12 [Example 38, (R)-1′-(2-(5-Amino-3-(pyridin-2-y1)-1H-pyrazol-1-yl)acetyl)-6-chloro-5-fluorospiro[benzo[d][1,3]oxazine-4,3′-pyrrolidin]-2(1H)-one] | 28 | 665 |
| Nc1cc(-c2cccs2)nn1CC(=O)N1CC[C@@]2(C1)OC(=O)Nc1ccc(Cl)c(F)c12 [Example 39, (R)-1′-(2-(5-Amino-3-(thiophen-2-y1)-1H-pyrazol-1-yl)acetyl)-6-chloro-5-fluorospiro[benzo[d] [1,3]oxazine-4,3′-pyrrolidin]-2(1H)-one] | 13 | 254 |
| Nc1cc(-c2ccco2)nn1CC(=O)N1CC[C@@]2(C1)OC(=O)Nc1ccc(Cl)c(F)c12 [Example 40, (R)-1′-(2-(5-Amino-3-(furan-2-y1)-1H-pyrazol-1-yl)acetyl)-6-chloro-5-fluorospiro[benzo[d] [1,3]oxazine-4,3′-pyrrolidin]-2(1H)-one] | 16.2 | 225 |
| Nc1cc(-c2nccs2)nn1CC(=O)N1CC[C@@]2(C1)OC(=O)Nc1ccc(Cl)c(F)c12 [Example 41, (R)-1′-(2-(5-Amino-3-(thiazol-2-y1)-1H-pyrazol-1-yl)acetyl)-6-chloro-5-fluorospiro[benzo[d] [1,3]oxazine-4,3′-pyrrolidin]-2(1H)-one] | 18.1 | 286 |
| Cc1cccc(-c2cc(N)n(CC(=O)N3CC[C@@]4(C3)OC(=O)Nc3ccc(Cl)c(F)c34)n2)c1 [Example 42, (R)-1′-(2-(5-Amino-3-(m-toly1)-1H-pyrazol-1-yl)acetyl)-6-chloro-5-fluorospiro[benzo[d][1,3]oxazine-4,3′-pyrrolidin]-2(1H)-one] | 15.1 | 611 |
